Experimental findings from PubChem BioAssay (NCI) are described below.

As usually defined, the TGI is the concentration at which net growth stops. High values mean less potent growth arrest, low ones more potent growth arrest. What is called GI50 is the concentration at which growth is held to half of that of the control.

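Five concentrations, 48 hours, 96-well plates. At the GI50, growth is halved. TGI denotes the concentration required for complete inhibition of growth.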 Bounds are passed on as bounds.

Holding throughout (test): DTP human tumour cell line panel, 48 h
Test [1] deals with CAKI-1 renal.
In test [2] the test system is HCT-15 colon.
The subject of test [3] is OVCAR-5 ovarian.
Test [4] has as its system NCI-H522 lung.
Test [5] concerns NCI-H23 lung.
For test [6], the system named is SK-MEL-5 melanoma.
Test [7] relates to SF-539 CNS.
Test [8] concerns U251 CNS.
In test [9] the test system is SNB-75 CNS.
For test [10], the system named is CCRF-CEM leukemia.

In the case of `COc1ccc2c(c1)[n+](=O)c(C(=O)C/C(=N/OCCCc1ccccc1)C(=O)NC13CC4CC(CC(C4)C1)C3)c(C)n2[O-]`, the TGI in [1], in test [2], in test [3], in [4], in test [5] and in test [6] was above 100 µM in each case. Also, the TGI in [7], in test [8], in test [9] and in [10] was above 100 µM each time.

As to `O=C(CC1C(=O)NN(c2ccc(Br)cc2)C1=O)c1cc(O)ccc1O` (stereo not given), the GI50 in [1] was 14.4 µM; in [2], 8.5 µM; in test [3], 34.7 µM; in test [4], 18.5 µM; in test [5] it was 19.8 µM; in test [6] it was 18.6 µM. Further, the GI50 is 11.3 µM in test [7], 14.2 µM in [8], 24.8 µM in [9] and above 50 µM in test [10]. Further, the TGI in test [1] is 35.7 µM; in test [2] it was 20 µM; in test [3], above 50 µM; in [4], above 50 µM; in test [5], above 50 µM; in test [6], above 50 µM. Further, the TGI in test [7] is 27.3 µM; in test [8], 36 µM; in test [9], above 50 µM; in [10], above 50 µM.

Regarding `CC[C@@]1(c2ccccc2)C2=C(CC(C)(C)CC2=O)Nc2[nH]ncc21`, the GI50 in test [1] was 51.9 µM; in test [2], 89 µM; in [3] it was above 100 µM; in test [4], above 100 µM; in [5] it was above 100 µM; in test [6], above 100 µM. For the same compound, the GI50 in test [7] was above 100 µM; in [8], above 100 µM; in test [9], 14.9 µM; in test [10] it was 31.8 µM. Also, the TGI in test [1], in test [2], in test [3], in test [4], in test [5] and in [6] was above 100 µM throughout. Moreover, the TGI in test [7], in test [8], in [9] and in [10] was above 100 µM throughout.

Consider `NC(=O)COC(=O)c1c(Cl)nc2sccn12`, for which the TGI in test [1] was above 100 µM; in [2], above 55.1 µM; in test [3] it was above 100 µM; in [4], above 100 µM; in test [5], above 100 µM; in [6], above 100 µM. For the same compound, the TGI in test [7] was above 100 µM; in [8], above 100 µM; in [9] it was above 100 µM; in [10], above 31.6 µM.

For the compound `O=C(CCN(C(=O)O)S(=O)(=O)c1ccc(NC(=O)c2ccccc2)cc1)NC1CCCCC1`, the TGI in [1], in [2], in [3], in test [4], in test [5] and in test [6] was above 100 µM throughout. Besides, the TGI in test [7], in test [8], in test [9] and in test [10] was above 100 µM each time.

Turning to `CCN(CC)CCCC(C)Nc1c2ccc(Cl)cc2nc2ccc(O)cc12` (stereo not given), the GI50 is 2.25 µM in test [1]; 2.98 µM in test [2]; 2.21 µM in [3]; 1.28 µM in test [4]; 3.18 µM in test [5]; 1.73 µM in test [6]. Further, the GI50 in test [7] is 1.63 µM; in [8], 2.49 µM; in test [9], 1.62 µM; in test [10], 3.48 µM. Further, the TGI in test [1] amounted to 6.1 µM; in test [2] it was 11 µM; in test [3], 7.78 µM; in test [4] it was 3.71 µM; in [5] it was 13.6 µM; in test [6], 3.12 µM. Further, the TGI came to 3.14 µM in [7], 11.4 µM in [8], 3.86 µM in [9] and 28.9 µM in [10].

In the case of `CCCCCCCC(=O)OCC/C=C/C1OC1C1OC(=O)/C=C\C=C\c2nc(oc2C)/C=C(/C)CCC2OC2C1OC(=O)NC(C)=O` (stereo not given), the GI50 in test [1] was 0.0664 µM; in test [2] it was 0.0558 µM; in test [3], 0.0193 µM; in [4] it was 0.0192 µM; in [5], 0.023 µM; in test [6] it was 0.0248 µM. Further, the GI50 in test [7] is 0.0396 µM; in test [8], 0.0497 µM; in test [9], 0.0277 µM; in test [10] it was 0.0651 µM. In addition, the TGI in test [1] turned out to be 1.56 µM; in test [2], 8.88 µM; in test [3], 0.104 µM; in test [4] it was 0.0755 µM; in [5], 0.108 µM; in test [6], 0.0688 µM. Besides, the TGI was 0.0819 µM in test [7], 3.11 µM in test [8], 0.0765 µM in test [9] and 3.98 µM in test [10].

As for `C#CCNC(=O)c1cccc2c1cc(C)n2-c1nc2c(c(NCc3ccccc3)n1)CCCC2`, the GI50 in [1] is 0.0289 µM; in [2], 0.0197 µM; in test [3], 0.0461 µM; in test [4] it was 0.0251 µM; in test [5], 0.0195 µM; in test [6], 0.00886 µM. The GI50 in [7] was 0.0245 µM; in [8], 0.0254 µM; in [9], 0.0365 µM; in test [10], 0.235 µM. Besides, the TGI worked out at 0.176 µM in test [1]; 0.0474 µM in test [2]; 0.154 µM in [3]; 0.0808 µM in test [4]; 0.0563 µM in test [5]; 0.0235 µM in test [6]. The concentration for total growth inhibition (TGI) came to 0.07 µM in test [7], 0.0646 µM in [8], 0.0872 µM in [9] and 0.945 µM in test [10].
